Measured values taken from EP0023761B1, “Tetrahydroisoquinoline derivatives, process for preparing them and compositions containing them” (priority 1979, dated 1981).
Counter-ions that a name gives are not always drawn.

Experiments:
[1] = target: T1, phenylethanolamine N-methyltransferase (Oryctolagus cuniculus, UniProt G1TT82); experiment: inhibition of phenylethanolamine N-methyltransferase in vitro (assay procedure of Pendleton and Snow); assay type: biochemical; conditions: read-out: inhibit phenylethanolamine N-methyltransferase; for inhibition at 100 µM: concentration 1.0 x 10-^4 (unit inferred); for inhibition at 1 µM: concentration 1.0 x 10-^6 (unit inferred)
T1 sequence (G1TT82 1-286): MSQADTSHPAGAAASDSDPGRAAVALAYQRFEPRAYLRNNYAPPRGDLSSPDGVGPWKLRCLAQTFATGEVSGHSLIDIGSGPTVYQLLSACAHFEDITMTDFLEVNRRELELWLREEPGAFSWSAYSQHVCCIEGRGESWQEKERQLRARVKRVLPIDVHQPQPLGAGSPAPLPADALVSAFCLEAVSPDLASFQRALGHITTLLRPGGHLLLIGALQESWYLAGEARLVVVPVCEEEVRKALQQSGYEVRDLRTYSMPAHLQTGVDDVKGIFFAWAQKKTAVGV

PNMT = experiment: in vivo PNMT inhibition in mice: adrenal epinephrine/norepinephrine ratio, measured fluorometrically; conditions: male mice, oral, 50 mg/kg per day, twice a day for seven days, dosed again next morning, sacrificed two hours later; vehicle control 2.5 + 0.23; p <.01
Procedure: Male mice were dosed orally with either drug or vehicle control on a twice-a-day basis for seven consecutive days. On the morning of the next day they were again dosed and two hours later sacrificed by decapitation. The adrenal glands were then removed and analyzed fluorometrically for both epinephrine and norepinephrine content.

SMILES	inhibition at 100 µM [1]	inhibition at 1 µM [1]	adrenal epinephrine/norepinephrine ratio (PNMT)
c1cc2nnsc2c2c1CCNC2 [[1,2,3]thiadiazolo[4,5-h]-6,7,8,9-tetrahydroisoquinoline hydrochloride]	99%	91%	
c1cc2snnc2c2c1CCNC2 [[1,2,3]thiadiazolo[5,4-h]-6,7,8,9-tetrahydroisoquinoline hydrochloride]	99%	94%	1.3 ± 0.08
